Structures can show the parent of a compound that is named as a salt.
Assays:
Format in all cases: biochemical
Conditions in all cases: single concentration (200, 100 or 50 μM), in duplicate, versus the positive control (vehicle)
[1] = target: T1, DNA gyrase (Staphylococcus aureus, UniProt P0A0K8+P20831); assay: DNA gyrase supercoiling assay (S. aureus)
T1 construct: purchased Inspiralis, UK
Method: (§1) The above compounds were tested for the inhibition of the enzyme DNA gyrase in a gyrase supercoiling assay and for the inhibition of the enzyme topoisomerase IV in a decatenation assay, in both Gram positive and Gram negative bacteria, according to the following methods.
(§2) Both the assays were carried out according to a set-up method modified from the article to Blanche F, et al. “Differential Behaviors of Staphylococcus aureus and Escherichia coli Type II DNA Topoisomerases”, Antimicrob.
(§3) The compounds were screened at single concentration (200, 100 or 50 μM), in duplicate.
(§4) Ciprofloxacin and novobiocin were used as reference compounds, at single concentration of 200 and 50 μM, respectively.
(§5) DNA Gyrase Supercoiling Assay.
(§6) Reagents from S. aureus and E. coli Gyrase Supercoiling Assay kits (Inspiralis, UK) were used. A master mix with a total volume sufficient for the number of reactions to perform was prepared with the following reagents: 5× assay buffer, relaxed pBR322 substrate (0.5 μg/reaction), RNase-DNase free water. Aliquotes of this mix were dispensed in each tube, then 10× compound stock solutions or vehicle control (DMSO), were added to each reaction tube.
(§7) Reaction was started with E. Coli (2 U/reaction) or S. aureus (1 U/reaction) gyrase enzyme addition.
(§8) A sample added with an equal volume of dilution buffer was used as negative control (without enzyme).
(§9) The reaction tubes were gentle vortexed and incubated 30 minutes at 37° C. Each reaction was stopped by adding 30 μl of Stop Buffer and 30 μl chloroform/isoamyl alcohol (24/1), briefly vortexed for 5-10 seconds and centrifuged at 20000×g for 2 minutes. Samples were loaded onto 1% agarose gel and subjected to electrophoresis for 1 hour at 80V constant voltage in TAE (40 mM Tris-acetate, 2 mM EDTA).
(§10) Data acquisition and analysis. Treatment of relaxed pBR322 with DNA gyrase converted the relaxed topoisomers (DNAs of different linking number) to the supercoiled form of the plasmid, which migrates faster on an agarose gel. An upper band might also be visible, which consists of open-circular (nicked) DNA which is present in the relaxed substrate but co-migrates with some of the relaxed topoisomers.
(§11) Bands were visualized by ethidium bromide staining (dil 1:20000) for 30 minutes followed by destaining in distilled water for 10 minutes.
(§12) In order to evaluate the compounds activity on the enzyme, the bands of supercoiled DNAs in the gel were photographed by a digital imaging system ImageQuant LAS 4000 (GE Healthcare) according to manufacturer's instructions.
(§13) The fluorescent intensity of each band was analysed by ImageQuant TL software and it was expressed as volume (volume of the uncalibrated quantity of material in the image feature after subtraction of the background intensity by using rolling ball method).
(§14) Each band intensity was compared, as percentage, to vehicle sample band intensity, which served as positive control, on the same gel.
(§15) Inhibitory activity was expressed as percent of inhibition versus the positive control.

[2] = target: T2, DNA gyrase (Escherichia coli, UniProt P0AES4+P0AES6); assay: DNA gyrase supercoiling assay (E. coli)
T2 construct: purchased Inspiralis, UK
T2 sequence (P0AES4 whole entry, one chain of several): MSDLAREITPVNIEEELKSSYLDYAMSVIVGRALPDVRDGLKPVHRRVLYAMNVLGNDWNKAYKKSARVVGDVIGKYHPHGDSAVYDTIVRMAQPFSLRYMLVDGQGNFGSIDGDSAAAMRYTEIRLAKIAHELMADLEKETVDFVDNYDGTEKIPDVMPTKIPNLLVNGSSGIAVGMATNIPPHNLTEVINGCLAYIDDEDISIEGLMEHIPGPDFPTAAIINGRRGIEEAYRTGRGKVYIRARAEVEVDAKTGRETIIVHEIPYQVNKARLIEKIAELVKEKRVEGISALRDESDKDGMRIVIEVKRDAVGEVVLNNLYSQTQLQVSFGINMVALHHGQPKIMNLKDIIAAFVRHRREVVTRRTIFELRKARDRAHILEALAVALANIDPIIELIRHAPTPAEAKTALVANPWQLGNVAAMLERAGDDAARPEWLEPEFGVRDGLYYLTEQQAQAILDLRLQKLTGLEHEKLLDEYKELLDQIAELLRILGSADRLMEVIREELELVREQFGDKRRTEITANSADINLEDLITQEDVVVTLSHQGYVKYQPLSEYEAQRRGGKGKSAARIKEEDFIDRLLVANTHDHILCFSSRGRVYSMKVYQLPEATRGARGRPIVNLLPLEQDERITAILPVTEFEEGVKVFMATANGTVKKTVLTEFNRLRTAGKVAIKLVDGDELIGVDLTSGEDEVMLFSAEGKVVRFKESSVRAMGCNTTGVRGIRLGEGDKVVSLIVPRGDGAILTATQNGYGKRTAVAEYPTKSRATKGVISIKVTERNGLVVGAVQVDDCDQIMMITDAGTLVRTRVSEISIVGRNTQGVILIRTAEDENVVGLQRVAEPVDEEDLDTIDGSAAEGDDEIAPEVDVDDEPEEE
Method: as §1, §2, §3, §4, §5, §6, §7, §8, §9, §10, §11, §12, §13, §14, §15

[3] = target: T3, Topoisomerase IV (Staphylococcus aureus, UniProt P0C1S7+P0C1U9); assay: Topoisomerase IV decatenation assay (S. aureus)
T3 construct: purchased Inspiralis, UK
T3 sequence (P0C1S7 whole entry): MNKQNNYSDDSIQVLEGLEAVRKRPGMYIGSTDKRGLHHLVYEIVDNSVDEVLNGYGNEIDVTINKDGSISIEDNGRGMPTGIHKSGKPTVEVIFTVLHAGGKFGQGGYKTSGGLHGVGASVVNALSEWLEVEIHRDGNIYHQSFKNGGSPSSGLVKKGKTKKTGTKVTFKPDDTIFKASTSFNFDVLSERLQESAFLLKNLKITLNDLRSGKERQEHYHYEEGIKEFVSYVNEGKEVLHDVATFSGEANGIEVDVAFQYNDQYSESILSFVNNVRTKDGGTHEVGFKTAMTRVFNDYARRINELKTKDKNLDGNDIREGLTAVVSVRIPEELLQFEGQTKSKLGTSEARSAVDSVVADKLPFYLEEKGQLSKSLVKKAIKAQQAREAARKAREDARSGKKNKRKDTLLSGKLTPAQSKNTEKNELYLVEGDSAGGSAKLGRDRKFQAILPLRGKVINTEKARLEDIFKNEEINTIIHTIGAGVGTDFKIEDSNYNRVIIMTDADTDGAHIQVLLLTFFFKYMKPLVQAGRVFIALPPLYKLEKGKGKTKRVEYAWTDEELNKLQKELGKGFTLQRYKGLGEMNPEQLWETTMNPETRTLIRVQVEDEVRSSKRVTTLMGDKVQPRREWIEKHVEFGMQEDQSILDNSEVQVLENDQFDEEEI
T3 sequence (P0C1U9 whole entry): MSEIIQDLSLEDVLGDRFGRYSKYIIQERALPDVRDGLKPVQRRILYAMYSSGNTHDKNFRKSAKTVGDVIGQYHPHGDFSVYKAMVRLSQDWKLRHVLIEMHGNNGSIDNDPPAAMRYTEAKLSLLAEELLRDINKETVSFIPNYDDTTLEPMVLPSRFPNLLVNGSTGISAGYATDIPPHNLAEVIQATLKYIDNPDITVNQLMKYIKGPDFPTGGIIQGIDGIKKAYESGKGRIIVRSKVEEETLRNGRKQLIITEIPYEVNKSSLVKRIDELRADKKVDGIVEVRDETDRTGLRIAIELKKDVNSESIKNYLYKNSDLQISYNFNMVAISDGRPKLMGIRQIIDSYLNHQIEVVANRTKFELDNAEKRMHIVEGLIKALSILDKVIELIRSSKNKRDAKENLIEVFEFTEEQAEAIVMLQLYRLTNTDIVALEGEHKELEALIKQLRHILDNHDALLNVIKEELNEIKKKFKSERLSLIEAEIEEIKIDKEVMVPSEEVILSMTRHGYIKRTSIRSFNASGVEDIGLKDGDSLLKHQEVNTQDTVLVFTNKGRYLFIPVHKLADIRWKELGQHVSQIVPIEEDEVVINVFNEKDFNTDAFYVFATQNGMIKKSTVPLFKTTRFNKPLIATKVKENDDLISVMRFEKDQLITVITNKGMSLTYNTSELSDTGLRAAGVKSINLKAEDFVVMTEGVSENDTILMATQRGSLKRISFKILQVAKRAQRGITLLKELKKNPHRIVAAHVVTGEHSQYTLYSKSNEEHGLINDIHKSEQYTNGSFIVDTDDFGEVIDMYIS
Method: as §1, §2, §3, §4
(§16) Topoisomerase IV Decatenation Assay
(§17) S. aureus and E. coli Topoisomerase IV decatenation kits (Inspiralis, UK) were used. A master mix with a total volume sufficient for the number of reactions to perform was prepared with the following reagents: 5× assay buffer (50 mM HEPES-KOH (pH 7.6), 100 mM potassium glutamate, 10 mM magnesium acetate, 10 mM DTT, 1 mM ATP, 50 μg/ml albumin), kDNA substrate (200 ng/reaction), RNase-DNase free water. Aliquots of this mix were dispensed in each tube, then 10× compound stock solutions or vehicle control (DMSO), were added in each reaction tube.
(§18) Reaction was started with Topoisomerase IV enzyme (0.5 U/reaction) addition.
as §8
(§19) The reaction tubes were gentle vortexed and incubated 30 minutes at 37° C. Each reaction was stopped by adding 30 μl of Stop Buffer and 30 μl of chloroform/isoamyl alcohol (24/1), briefly vortexed for 5-10 seconds and centrifuged at 20000×g for 2 minutes. Samples taken from the upper phase were loaded into 1% agarose gel and subjected to electrophoresis for 1 hour at 80V constant voltage in TAE (40 mM Tris-acetate, 2 mM EDTA).
(§20) Data acquisition and analysis. Due to the high molecular mass, kDNA could not enter an agarose gel under normal electrophoresis conditions, but remained in the wells. In the presence of Topo IV topoisomerase mini-circles (2.5 Kb) were released from kDNA by decatenation and were quickly and easily resolved in the gel at relatively high voltages.
as §11
(§21) For single concentration screening assay, in order to evaluate the compounds activity on the enzymes, the bands of decatenated DNAs in the gel were photographed by a digital imaging system ImageQuant LAS 4000 (GE Healthcare) according to manufacturer's instructions.
(§22) The fluorescent intensity of each band was analyzed by ImageQuant TL software and it was expressed as volume (volume of the uncalibrated quantity of material in the image feature after subtraction of the background intensity by using rolling ball method).
as §14, §15

[4] = target: T4, Topoisomerase IV (Escherichia coli, UniProt P0AFI2+P20083); assay: Topoisomerase IV decatenation assay (E. coli)
T4 construct: purchased Inspiralis, UK
Method: as §1, §2, §3, §4, §16, §17, §18, §8, §19, §20, §11, §21, §22, §14, §15

T1 sequence (P20831 whole entry): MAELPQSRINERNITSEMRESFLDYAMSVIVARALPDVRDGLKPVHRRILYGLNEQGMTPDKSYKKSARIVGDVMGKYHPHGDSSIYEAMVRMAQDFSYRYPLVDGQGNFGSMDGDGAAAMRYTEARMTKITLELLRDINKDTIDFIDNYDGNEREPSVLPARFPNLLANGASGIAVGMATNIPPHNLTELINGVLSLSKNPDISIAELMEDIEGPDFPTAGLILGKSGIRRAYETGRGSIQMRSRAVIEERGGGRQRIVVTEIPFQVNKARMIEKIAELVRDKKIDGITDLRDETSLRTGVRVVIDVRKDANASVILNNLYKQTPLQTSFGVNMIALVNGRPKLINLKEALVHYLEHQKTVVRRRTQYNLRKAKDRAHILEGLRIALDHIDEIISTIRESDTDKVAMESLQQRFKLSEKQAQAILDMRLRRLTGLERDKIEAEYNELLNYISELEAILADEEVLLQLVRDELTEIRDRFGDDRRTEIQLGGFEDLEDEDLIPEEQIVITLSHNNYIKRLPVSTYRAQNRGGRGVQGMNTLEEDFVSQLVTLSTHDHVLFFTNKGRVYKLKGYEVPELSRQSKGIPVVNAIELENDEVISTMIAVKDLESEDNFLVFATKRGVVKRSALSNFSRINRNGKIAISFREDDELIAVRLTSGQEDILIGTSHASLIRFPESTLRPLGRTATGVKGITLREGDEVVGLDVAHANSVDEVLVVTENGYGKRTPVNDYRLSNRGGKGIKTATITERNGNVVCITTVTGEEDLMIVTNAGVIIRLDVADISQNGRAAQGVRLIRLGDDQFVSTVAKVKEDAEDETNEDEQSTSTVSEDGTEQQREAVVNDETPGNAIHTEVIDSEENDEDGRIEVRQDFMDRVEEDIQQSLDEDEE
T1 sequence (P0A0K8 whole entry): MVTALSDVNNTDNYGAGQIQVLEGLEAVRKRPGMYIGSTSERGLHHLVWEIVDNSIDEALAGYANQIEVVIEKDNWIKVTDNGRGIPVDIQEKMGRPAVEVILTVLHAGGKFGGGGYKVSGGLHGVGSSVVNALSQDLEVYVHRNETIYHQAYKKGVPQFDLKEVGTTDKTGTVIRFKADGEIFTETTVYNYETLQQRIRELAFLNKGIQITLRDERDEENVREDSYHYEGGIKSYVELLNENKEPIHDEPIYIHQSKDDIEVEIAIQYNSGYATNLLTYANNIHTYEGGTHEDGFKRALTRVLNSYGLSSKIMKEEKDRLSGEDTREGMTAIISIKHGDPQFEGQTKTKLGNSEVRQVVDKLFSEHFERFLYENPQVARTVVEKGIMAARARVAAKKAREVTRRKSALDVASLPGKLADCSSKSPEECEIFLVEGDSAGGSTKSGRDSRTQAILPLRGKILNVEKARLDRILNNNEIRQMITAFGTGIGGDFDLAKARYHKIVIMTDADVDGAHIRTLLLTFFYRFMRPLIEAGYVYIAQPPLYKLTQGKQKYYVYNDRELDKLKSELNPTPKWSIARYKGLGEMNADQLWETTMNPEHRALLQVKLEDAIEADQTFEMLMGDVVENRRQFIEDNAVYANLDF

| Structure (SMILES) | % inhibition DNA gyrase [1] | % inhibition DNA gyrase [2] | % inhibition Topo IV [3] | % inhibition Topo IV [4] |
| --- | --- | --- | --- | --- |
| O=C(NCCN1CCN(c2nccc3ccccc23)CC1)c1cc(=O)oc2ccccc12 [Compound 75, N-{2-[4-(isoquinolin-1-yl)piperazin-1-yl]ethyl}-2-oxo-2H-chromene-4-carboxamide hydrochloride] | 61% | 69% | n/a (n/a = not active) | n/a (n/a = not active) |
| COC(=O)C1CN(c2nccc3ccccc23)CCN1CCCNc1cc(=O)oc2ccccc12 (stereo not drawn) [Compound 81, methyl 4-(isoquinolin-1-yl)-1-{3-[(2-oxo-2H-chromen-4-yl)amino]propyl}piperazine-2-carboxylate hydrochloride] | n/a (n/a = not active) | 80% | n/a (n/a = not active) | n/a (n/a = not active) |
| O=C(O)C1CN(c2nccc3ccccc23)CCN1CCCNc1cc(=O)oc2ccccc12 (stereo not drawn) [Compound 82, 4-(isoquinolin-1-yl)-1-{3-[(2-oxo-2H-chromen-4-yl)amino]propyl}piperazine-2-carboxylic acid hydrochloride] | 82% | 85% | n/a (n/a = not active) | n/a (n/a = not active) |
| O=c1cc(NCCCN2CCN(c3nccc4ccccc34)CC2CC(F)(F)F)c2ccccc2o1 (stereo not drawn) [Compound 83, 4-({3-[4-(isoquinolin-1-yl)-2-(2,2,2-trifluoroethyl)piperazin-1-yl]propyl}amino)-2H-chromen-2-one hydrochloride] | n/a (n/a = not active) | 69% | n/a (n/a = not active) | n/a (n/a = not active) |
| COc1ccc2c(NCCCN3CCN(c4nccc5ccccc45)CC3)cc(=O)oc2c1 [Compound 85, 4-({3-[4-(isoquinolin-1-yl)piperazin-1-yl]propyl}amino)-7-methoxy-2H-chromen-2-one hydrochloride] | 86% | 78% | n/a (n/a = not active) | n/a (n/a = not active) |
| O=c1oc2ccccc2cc1NCCCN1CCN(c2nccc3ccccc23)CC1 [Compound 87, 3-({3-[4-(isoquinolin-1-yl)piperazin-1-yl]propyl}amino)-2H-chromen-2-one hydrochloride] | 96% | 79% | n/a (n/a = not active) | n/a (n/a = not active) |
| Cc1cccc2oc(=O)cc(NCCCN3CCN(c4nccc5ccc(F)cc45)CC3)c12 [Compound 96, 4-({3-[4-(7-fluoroisoquinolin-1-yl)piperazin-1-yl]propyl}amino)-5-methyl-2H-chromen-2-one hydrochloride] | 91% | 88% | n/a (n/a = not active) | n/a (n/a = not active) |
| Cc1c(NCCCN2CCN(c3nccc4ccc(F)cc34)CC2)c2ccccc2oc1=O [Compound 97, 4-({3-[4-(7-fluoroisoquinolin-1-yl)piperazin-1-yl]propyl}amino)-3-methyl-2H-chromen-2-one hydrochloride] | 86% | 85% | n/a (n/a = not active) | n/a (n/a = not active) |
| O=c1cc(NCCCN2CCN(c3nccc4ccc(F)cc34)CC2)c2ccc(O)cc2o1 [Compound 107, 4-({3-[4-(7-fluoroisoquinolin-1-yl)piperazin-1-yl]propyl}amino)-7-hydroxy-2H-chromen-2-one hydrochloride] | 74% | 92% | n/a (n/a = not active) | n/a (n/a = not active) |
| O=C(CN1CCC(Nc2cc(=O)oc3ccccc23)CC1)NCc1nccc2ccccc12 [Compound 118, N-(isoquinolin-1-ylmethyl)-2-{4-[(2-oxo-2H-chromen-4-yl)amino]piperidin-1-yl}acetamide] | n/a (n/a = not active) | 78% | n/a (n/a = not active) | n/a (n/a = not active) |
| O=c1cc(NCCCN2CCN(c3nccc4ccc(F)cc34)CC2)c2c(o1)CCNC2 [Compound 122, 4-({3-[4-(7-fluoroisoquinolin-1-yl)piperazin-1-yl]propyl}amino)-5,6,7,8-tetrahydro-2H-pyrano[3,2-c]pyridin-2-one hydrochloride] | n/a (n/a = not active) | 58% | n/a (n/a = not active) | n/a (n/a = not active) |
| C[N+]1(CCCc2nccc3ccccc23)CCC(Nc2cc(=O)oc3ccccc23)CC1 (stereo not drawn) [Compound 123] | n/a (n/a = not active) | 52% | n/a (n/a = not active) | n/a (n/a = not active) |
| O=C(O)C[C@@H](NC[C@@H](O)CN1CCN(c2nccc3ccc(F)cc23)CC1)c1ccccc1 [Compound 141, (3R)-3-({(2R)-3-[4-(7-fluoroisoquinolin-1-yl)piperazin-1-yl]-2-hydroxypropyl}amino)-3-phenylpropanoic acid] | 65% | n/a (n/a = not active) | n/a (n/a = not active) | n/a (n/a = not active) |
| O=C(O)C[C@@H](NC[C@H](O)CN1CCN(c2nccc3ccc(F)cc23)CC1)c1ccccc1 [Compound 142, (3R)-3-({(2S)-3-[4-(7-fluoroisoquinolin-1-yl)piperazin-1-yl]-2-hydroxypropyl}amino)-3-phenylpropanoic acid] | 52% | n/a (n/a = not active) | n/a (n/a = not active) | n/a (n/a = not active) |
| O=C(O)CC(NCCNC1CCN(c2nccc3ccc(F)cc23)CC1)C1CCCCC1 (stereo not drawn) [Compound 190, lithium 3-cyclohexyl-3-[(2-{[1-(7-fluoroisoquinolin-1-yl)piperidin-4-yl]amino}ethyl)amino]propanoate] | 73% | 61% | n/a (n/a = not active) | n/a (n/a = not active) |

Source: patent publication US10369130B2, “Antibacterial compounds” (AZIENDE CHIMICHE RIUNITE ANGELINI FRANCESCO A.C.R.A.F. …, priority 2014, dated 2019)
